Assay results taken from patent US20220280468A1, “METHOD FOR PREVENTING OCCURRENCE OF CARDIOVASCULAR EVENT IN MULTIPLE RISK PATIENT” (MOCHIDA PHARMACEUTICAL CO., LTD., priority 2006, published 2022).

Tests used:
[1] = tested on: cardiovascular events in hypercholesterolemia patients; assay: JELIS partial analysis: occurrence of cardiovascular events in primary prevention hypercholesterolemia patients by risk factors; type: in vivo, human; details: for Incidence in the EPA-E group (cases of occurrence/all cases) / Incidence in the EPA-E group (%): with HMG-CoA RI base drug; for Rate of suppression of cardiovascular event occurrence after correcting the dispersion between groups: end of trial
Excerpt: This trial corresponds to a partial analysis of the results obtained in JELIS (Japan EPA Lipid Intervention Study) which is a large scale clinical trial of high purity EPA preparation which was presented in The […] 2005 Annual Meeting (for general information on JELIS, see Medical Tribune, issue of Nov. 17, 2005, Feature article 3, pp. 75-76).
More specifically, for the EPA-E group (7503 cases) and the control group (7478 cases) evaluated for the primary prevention effect in the 18,645 subject patients of the JELIS trial (EPA-E group (9,326 cases) and control group (9,319 cases)), occurrence of the cardiovascular events was observed and analysed for 5 years from the start of the administration in relation to the number of risk factors at the registration as defined by the following (1) to (4): • (1) obesity: body mass index (BMI) of at least 25; • (2) hypertension or prehypertension: systolic blood pressure (SBP) of at least 140 mmHg or diastolic blood pressure (DBP) of at least 90 mmHg; • (3) diabetes, prediabetes, or abnormal glucose tolerance: fasting blood glucose (FBS) of at least 126 mg/dL or hemoglobin Alc (HbAlc) of at least 6.5%; • (4) hypertriglyceridemia or low HDL cholesterolemia: a triglyceride (TG) of at least 150 mg/dL or a HDL-C of less than 40 mg/dL.
The EPA-E group was orally administered with Epadel (Mochida Pharmaceutical Co., Ltd.) typically at an adult dose of 600 mg per administration and 3 times a day after the meal. However, in the case of abnormal serum TG, the dose could be increased to 900 mg per administration and 3 times a day. In both groups, pravastatin sodium (Mevalotin™ tablets and fine granules, Daiichi Sankyo Co., Ltd.), simvastatin (Lipovas™ tablets, Banyu Pharmaceutical Co., Ltd.), or atorvastatin calcium hydrate (Lipitor™ tablets, Astellas Pharma Inc. and Pfizer Inc.) was used for the base drug, and these drugs were orally administered according to the prescribed dosage regimen. More specifically, pravastatin sodium was orally administered at a daily dose of 10 to 20 mg in a single dose or two divided doses; simvastatin was orally administered at a daily dose of 5 to 20 mg in a single dose; atorvastatin calcium hydrate was orally administered at a daily dose of 10 to 40 mg in a single dose.
The number of occurrence of cardiovascular events in the observation period of 5 years, incidence (%), and rate of suppression of the incidence of the cardiovascular events in the EPA-E group with respect to the control group are shown in Table 1 for each number of risk factors. The rate of suppression of the incidence of the cardiovascular events was calculated by the formula: [{(incidence in the control group)−(incidence in the EPA-E group)}/incidence in the control group]×100.
From the results of the trial as described above, the number of occurrence of cardiovascular events in the observation period of 5 years, incidence (%), and rate of suppression of the incidence of the cardiovascular events in the EPA-E group with respect to the control group were calculated for the male patients having at least two risk factors. (The calculation was conducted by the same procedure as described above.)
(The calculation was conducted by the same procedure as described above.)

[2] = tested on: cardiac events and serum lipids in hyperlipidemia patients; details: cited from earlier work
[3] = 1-2 risk factors, 5 years observation
[4] = 1-3 risk factors, 5 years observation
[5] = 1-4 risk factors, 5 years observation
[6] = 1 risk factor, 5 years observation
[7] = 2-3 risk factors, 5 years observation
[8] = 2-4 risk factors, 5 years observation
[9] = 2 risk factors, 5 years observation
[10] = 3-4 risk factors, 5 years observation
[11] = 3 risk factors, 5 years observation
[12] = TG of at least 150 mg/dL and HDL-C of less than 40 mg/dL
[13] = male patients with two or more risk factors
[14] = male patients, 2-4 risk factors, 5 years observation
[15] = patients with TG of at least 150 mg/dL and HDL-C of less than 40 mg/dL, 5 years
[16] = EPA-E group (with HMG-CoA RI), Non-Patent Document 3

CC/C=C\C/C=C\C/C=C\C/C=C\C/C=C\CCCC(=O)OCC [EPA-E, ethyl icosapentate]
Rate of Suppression of cardiovascular event incidence vs control group ([1]; 0 risk factors, 5 years): 22%
Incidence in the EPA-E group (cases of occurrence/all cases) ([1]; 0 risk factors, 5 years observation): 11/1326
Rate of Suppression of cardiovascular event incidence vs control group ([1]; 1-2 risk factors, 5 years): 21%
Incidence in the EPA-E group (%) [1, 3]: (1.3) %
Incidence in the EPA-E group (cases of occurrence/all cases) [1, 3]: 59/4706
Rate of Suppression of cardiovascular event incidence vs control group ([1]; 1-3 risk factors, 5 years): 18%
Incidence in the EPA-E group (%) [1, 4]: (1.5) %
Incidence in the EPA-E group (cases of occurrence/all cases) [1, 4]: 87/5935
Rate of Suppression of cardiovascular event incidence vs control group ([1]; 1-4 risk factors, 5 years): 18%
Incidence in the EPA-E group (%) [1, 5]: (1.5) %
Incidence in the EPA-E group (cases of occurrence/all cases) [1, 5]: 93/6177
Rate of Suppression of cardiovascular event incidence vs control group ([1]; 1 risk factor, 5 years): 15%
Incidence in the EPA-E group (%) [1, 6]: (1.0) %
Incidence in the EPA-E group (cases of occurrence/all cases) [1, 6]: 25/2468
Rate of Suppression of cardiovascular event incidence vs control group ([1]; 2-3 risk factors, 5 years): 16%
Incidence in the EPA-E group (%) [1, 7]: (1.8) %
Incidence in the EPA-E group (cases of occurrence/all cases) [1, 7]: 62/3467
Rate of Suppression of cardiovascular event incidence vs control group ([1]; 2-4 risk factors, 5 years): 18%
Incidence in the EPA-E group (%) [1, 8]: (1.8) %
Incidence in the EPA-E group (cases of occurrence/all cases) [1, 8]: 68/3709
Rate of Suppression of cardiovascular event incidence vs control group ([1]; 2 risk factors, 5 years): 23%
Incidence in the EPA-E group (%) [1, 9]: (1.5) %
Incidence in the EPA-E group (cases of occurrence/all cases) [1, 9]: 34/2238
Rate of Suppression of cardiovascular event incidence vs control group ([1]; 3-4 risk factors, 5 years): 14%
Incidence in the EPA-E group (%) [1, 10]: (2.3) %
Incidence in the EPA-E group (cases of occurrence/all cases) [1, 10]: 34/1471
Rate of Suppression of cardiovascular event incidence vs control group ([1]; 3 risk factors, 5 years): 5%
Incidence in the EPA-E group (%) [1, 11]: (2.3) %
Incidence in the EPA-E group (cases of occurrence/all cases) [1, 11]: 28/1229
Rate of Suppression of cardiovascular event incidence vs control group ([1]; 4 risk factors, 5 years): 40%
Incidence in the EPA-E group (cases of occurrence/all cases) ([1]; 4 risk factors, 5 years observation): 6/242
Effect on occurrence of cardiovascular events (in words) [1, 12]: significantly suppressed occurrence of cardiovascular events
Occurrence of fatal events in the EPA-E group [1, 12]: occurrence of fatal events was not found
Time from start of administration after which decrease in cardiovascular event incidence was significant [1, 12]: ≥ 2 years
Rate of suppression of cardiovascular event occurrence after correcting the dispersion between groups ([1]; TG of at least 150 mg/dL and HDL-C of less than 40 mg/dL, FIG. 2): 53%
Effect on occurrence of cardiovascular events (in words) [1, 13]: significantly suppressed the occurrence of cardiovascular events
Time from start of administration after which decrease in cardiovascular event incidence was significant [1, 13]: ≥ 2 years
Rate of suppression of cardiovascular event occurrence after correcting the dispersion between groups ([1]; male patients with two or more risk factors, FIG. 1): 55%
Incidence in the EPA-E group (%) [1, 14]: (1.8) %
Incidence in the EPA-E group (cases of occurrence/all cases) [1, 14]: 19/1065
Rate of Suppression of cardiovascular event incidence vs control group ([1]; male patients, 2-4 risk factors, 5 years, uncorrected): 56%
Suppression of occurrence of cardiovascular events vs control group ([1]; patients with HDL-C of less than 40 mg/dL, uncorrected): 35%
Rate of Suppression of cardiovascular event incidence vs control group ([1]; patients with TG of at least 150 mg/dL and HDL-C of less than 40 mg/dL, 5 years, uncorrected): 48%
Incidence in the EPA-E group (%) [1, 15]: (2.3) %
Incidence in the EPA-E group (cases of occurrence/all cases) [1, 15]: 11/482
Suppression of occurrence of cardiovascular events vs control group ([1]; patients with triglyceride of at least 150 mg/dL, uncorrected): 15%
Change of HDL-cholesterol value ([2]; EPA-E group (with HMG-CoA RI), Non-Patent Document 2): slight
Change in HDL-C [2, 16]: little change
Decrease of LDL-cholesterol [2, 16]: 25%
Decrease of total cholesterol [2, 16]: 19%
Reduction of LDL-cholesterol value ([2]; EPA-E group (with HMG-CoA RI), after 5 years, Non-Patent Document 2): 26%
Decrease of triglyceride ([2]; EPA-E group (with HMG-CoA RI), significant, Non-Patent Document 3): 9%
Incidence of events vs control group (in words) ([2]; analysis limited to the primary prevention patients): this difference was not statistically significant
Suppression of cardiac events (in words) ([2]; total of primary and secondary prevention patients, and secondary prevention patients): statistically significant suppression
